The record followed here is publication PMC4996933, “Shared active site architecture between archaeal PolD and multi-subunit RNA polymerases revealed by X-ray crystallography” (Nature Communications, 2016).

This experiment concerns the target T1, PolD DP1 (144-622), proofreading exonuclease subunit (Pyrococcus abyssi, UniProt Q9V2F3).
T1 construct: gene polB; residues 144-622, flexible N-terminal region removed; N-terminal 14-His tag cut with TEV; E. coli BL21(DE3) Rosetta2; di-metal site Fe3+/Zn2+; two copies in the asymmetric unit
T1 sequence (Q9V2F3 141-619): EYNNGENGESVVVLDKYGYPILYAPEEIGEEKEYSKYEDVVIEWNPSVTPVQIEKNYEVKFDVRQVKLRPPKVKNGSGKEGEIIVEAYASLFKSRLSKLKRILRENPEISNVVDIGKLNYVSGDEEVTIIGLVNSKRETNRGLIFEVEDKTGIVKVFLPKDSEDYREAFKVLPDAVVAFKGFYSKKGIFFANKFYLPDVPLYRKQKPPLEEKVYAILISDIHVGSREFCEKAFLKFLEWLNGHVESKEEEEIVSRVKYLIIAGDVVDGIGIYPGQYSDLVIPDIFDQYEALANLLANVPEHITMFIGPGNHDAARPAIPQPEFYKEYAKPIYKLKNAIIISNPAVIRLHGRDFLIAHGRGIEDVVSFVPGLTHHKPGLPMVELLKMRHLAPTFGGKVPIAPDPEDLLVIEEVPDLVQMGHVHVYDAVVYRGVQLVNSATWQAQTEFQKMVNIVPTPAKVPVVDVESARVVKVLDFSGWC
As to the kind of experiment: X-ray crystallography, co-crystallization, […] Å. It counts as binding. The conditions noted are these: 5 mM dAMP, pH 6.7, 4 °C; Fe3+/Zn2+ nuclease active site; calcium acetate in crystallization buffer.

For `Nc1ncnc2c1ncn2[C@H]1C[C@H](O)[C@@H](COP(=O)(O)O)O1` [dAMP], the “X-ray crystallography, co-crystallization, 2.5 Å” value was “DP1 was co-crystallized together with deoxy-adenosine monophosphate (dAMP)”.
